Values joined by “and” are separate entries in the source; they are usually repeats but may differ in a detail not shown here. Equal entries are not always repeated. Where two headings read alike, the source gives them in different places.
Legend:
TERT = TERT enzyme (telomerase activation) assay in normal melanocyte HFB4 cells; type: cell-based, human; conditions: 1 μM; for TERT Concentration Mean ± SD / Relative Increase (TERT vs untreated HFB4 control): 24 h; for Relative Increase (TERT vs untreated HFB4 control): control = 1
Experimental: In the present study, we assessed the in vitro anti-ageing activity of the lignan-type compounds 1–5 utilizing a TERT enzyme assay (Table 3). The normal melanocyte cell line (HFB4) was used as a model system in this study, and curcumin (1 μM) was used as a standard telomerase activator [47]. According to the report, curcumin has made it possible for model organisms to live longer, reduced the signs of ageing, and slowed the onset of age-related illnesses where cellular senescence is a direct cause.
TERT activity assay was used for in vitro investigation of the compound’s anti-ageing properties. The HFB4 (VACSERA, Giza, Egypt) was used as a model system for the study of amplification of telomers in response to our test compounds and curcumin. HFB4 cells were cultivated in RPMI-1640 medium enriched with heat-inactivated FBS (10%) and penicillin–streptomycin (100 U/mL). HFB4 cells (2 × 10^5) were plated and incubated in a 5% CO2 humidified atmosphere at 37 °C for 24 h. The cells were then left untreated (negative control), treated with tested compounds and with 1 μM curcumin, a standard activator for TERT. The supernatant from the various conditions was collected after 24 h, centrifuged for 20 min at 1000× g at 4 ℃, and immediately submitted for the assay as previously described. The different supernatants were added separately to a microtiter plate pre-coated with a TERT-specific antibody (Ab) and then incubated with a TERT-specific biotin detection Ab. Then, streptavidin/horseradish peroxidase (SABC) conjugate was added to all wells and incubated. […] The optical density (OD) was measured spectrophotometrically at 450 nm. The TERT concentration was determined by comparing the OD of the samples with the standard curve prepared according to the instructions of the manufacturer. The relative OD450 = (OD450 of the reaction well) − (OD450 of no treatment well). The standard curve was plotted by drawing the relative OD450 of each standard solution (Y) versus the respective concentration of the standard solution (X). The human TERT concentration of the samples was interpolated from the standard curve.

AChE = biological target: T1, AChE (Electrophorus electricus, UniProt O42275); assay: biochemical; conditions: for IC50 / % Inhibition of AChE: mean ± SD; for inhibition at 0.01 µM / inhibition at 0.1 µM / inhibition at 1 µM / inhibition at 10 µM: read-out: % Inhibition of AChE
T1 construct: purchased
T1 sequence (O42275 24-633): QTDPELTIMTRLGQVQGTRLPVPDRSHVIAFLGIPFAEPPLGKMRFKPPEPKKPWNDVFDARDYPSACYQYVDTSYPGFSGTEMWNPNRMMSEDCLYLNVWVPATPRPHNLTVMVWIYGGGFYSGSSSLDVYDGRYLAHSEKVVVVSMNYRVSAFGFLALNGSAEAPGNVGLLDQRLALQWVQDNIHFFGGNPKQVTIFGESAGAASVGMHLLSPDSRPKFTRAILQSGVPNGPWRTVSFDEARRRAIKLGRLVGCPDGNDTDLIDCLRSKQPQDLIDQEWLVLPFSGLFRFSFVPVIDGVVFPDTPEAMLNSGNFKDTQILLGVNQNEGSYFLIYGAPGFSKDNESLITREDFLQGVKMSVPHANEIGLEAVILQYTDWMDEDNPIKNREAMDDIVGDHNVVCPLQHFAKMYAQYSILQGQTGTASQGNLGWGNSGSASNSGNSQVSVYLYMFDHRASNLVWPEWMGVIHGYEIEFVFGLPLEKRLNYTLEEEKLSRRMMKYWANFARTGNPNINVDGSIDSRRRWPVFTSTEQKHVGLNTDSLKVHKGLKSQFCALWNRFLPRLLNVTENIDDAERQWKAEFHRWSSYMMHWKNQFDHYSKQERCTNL
Experimental: The preparation of the sample was the same as has been previously described. The AChE-inhibitory effect of the furofuranoid lignans 1–5 was determined using an AChE inhibitor screening kit (the Quanti-Chrome assay kit). […] The 96-well plate reaction was prepared according to the manufacturer’s protocol.

AChE enzyme = tested on: AChE enzyme; parameters: method as in doi:10.25135/rnp.71.17.04.074; conditions: 250 µg/mL; cited from earlier work
[1] = tested on: butyrylcholinesterase enzyme; parameters: method as in doi:10.25135/rnp.71.17.04.074; conditions: 250 µg/mL; cited from earlier work
memory decline = conditions: 25 mg/kg, p.o.; dose-dependent; cited from earlier work
neuro2a cells = tested on: neuro2a cells; parameters: method as in PMID 30685474; conditions: cited from earlier work
acetylcholinesterase = conditions: concentration-dependent; cited from earlier work
[2] = tested on: hippocampal long-term potentiation; parameters: method as in PMID 30685474; conditions: 50 μM; cited from earlier work
[3] = read-out: IC50 (AChE inhibition)

COc1cc(/C=C/C(=O)CC(=O)/C=C/c2ccc(O)c(OC)c2)ccc1O [Curcumin, curcumin, reference compound]
increase in telomerase activity compared to untreated cells (TERT): 1.62 fold | TERT Concentration Mean ± SD (TERT): 2.8 ± 0.03 ng/mL | Relative Increase (TERT vs untreated HFB4 control) (TERT): 1.62

COc1cc([C@H]2OC[C@H]3[C@@H]2CO[C@@H]3c2ccc(O[C@@H]3O[C@H](CO)[C@@H](O)[C@H](O)[C@H]3O)c(OC)c2)ccc1O [Compound 5, pinoresinol 4-O-β-D-glucoside]
IC50 (AChE; [3]): 64.5 nM and 64 nM | inhibition at 0.01 µM (AChE): 28 ± 3% | inhibition at 0.1 µM (AChE): 59 ± 4% | inhibition at 1 µM (AChE): 79 ± 1% | inhibition at 10 µM (AChE): 88 ± 3% | inhibitory effect on the AChE enzyme (AChE enzyme): 20.17 ± 0.44% | increase in telomerase activity compared to untreated cells (TERT): 1.66 fold | TERT Concentration Mean ± SD (TERT): 2.8 ± 0.09 ng/mL | Relative Increase (TERT vs untreated HFB4 control) (TERT): 1.66 | inhibitory effect on the butyrylcholinesterase enzyme [1]: 11.02 ± 0.35%

phillyrin [Compound 4]
% Inhibition of AChE (AChE; 0.01 µM): 26 ± 3% | % Inhibition of AChE (AChE; 0.1 µM): 41 ± 2% | % Inhibition of AChE (AChE; 1 µM): 64 ± 2% | % Inhibition of AChE (AChE; 10 µM): 73 ± 2% | increase in telomerase activity compared to untreated cells (TERT): 1.72 fold and 1.71 fold | TERT Concentration Mean ± SD (TERT): 2.9 ± 0.06 ng/mL | Relative Increase (TERT vs untreated HFB4 control) (TERT): 1.72

COc1cc([C@H]2OC[C@H]3[C@@H]2CO[C@H]3c2ccc(O)c(OC)c2)ccc1O (relative stereo) [Compound 3, epipinoresinol]
IC50 (AChE; IC50 (AChE inhibition)): 242 ± 9 nM | inhibition at 0.01 µM (AChE): 23 ± 1% | inhibition at 0.1 µM (AChE): 44 ± 1% | inhibition at 1 µM (AChE): 60 ± 2% | inhibition at 10 µM (AChE): 82 ± 3% | increase in telomerase activity compared to untreated cells (TERT): a little weak | TERT Concentration Mean ± SD (TERT): 2.0 ± 0.06 ng/mL | Relative Increase (TERT vs untreated HFB4 control) (TERT): 1.18

COc1cc([C@H]2OC[C@H]3[C@@H]2CO[C@@H]3c2ccc(O)c(OC)c2)ccc1O (relative stereo) [Compound 2, pinoresinol]
IC50 (AChE; IC50 (AChE inhibition)): 292 ± 9 nM | inhibition at 0.01 µM (AChE): 26 ± 1% | inhibition at 0.1 µM (AChE): 41 ± 1% | inhibition at 1 µM (AChE): 60 ± 3% | inhibition at 10 µM (AChE): 75 ± 2% | effect on memory decline in dementia model (memory decline): improved memory decline | increase in telomerase activity compared to untreated cells (TERT): a little weak | TERT Concentration Mean ± SD (TERT): 2.2 ± 0.03 ng/mL | Relative Increase (TERT vs untreated HFB4 control) (TERT): 1.28 | effect on calcium influx (neuro2a cells): aided calcium influx into neuro2a cells | effect on acetylcholinesterase activity (acetylcholinesterase): inhibited the activity of acetylcholinesterase in a concentration-dependent manner | effect on induction of hippocampal long-term potentiation [2]: aided the induction of hippocampal long-term potentiation

COc1cc([C@H]2OC[C@H]3[C@@H]2CO[C@@H]3c2cc(OC)c3c(c2)[C@H](CO)[C@@H](c2ccc(O[C@@H]4O[C@H](CO)[C@@H](O)[C@H](O)[C@H]4O)c(OC)c2)O3)ccc1O [Compound 1, anisacanthin]
IC50 (AChE; [3]): 85 nM | inhibition at 0.01 µM (AChE): 24 ± 1% | inhibition at 0.1 µM (AChE): 61 ± 1% | inhibition at 1 µM (AChE): 75 ± 2% | inhibition at 10 µM (AChE): 83 ± 2% | increase in telomerase activity compared to untreated cells (TERT): 1.64 fold | TERT Concentration Mean ± SD (TERT): 2.8 ± 0.04 ng/mL | Relative Increase (TERT vs untreated HFB4 control) (TERT): 1.64

From PMC10820861, “Furofuranoid-Type Lignans and Related Phenolics from Anisacanthus virgularis (Salisb.) Nees with Promising Anticholinesterase and Anti-Ageing Properties: A Study Supported by Molecular Modelling” (Plants, 2024)
